Experimental data taken from PMC10416764, “Crystal structure of Prp16 in complex with ADP” (Acta Crystallographica. Section F, Structural Biology …, 2023).

Target: T1, ctPrp16 (302-920) (Thermochaetoides thermophila, UniProt G0S0F9)
T1 construct: gene CTHT_0009880; residues 302-920 (RecA1, RecA2, WH, HB, OB-fold); N- and C-terminally truncated; codon-optimized gene, E. coli Rosetta2 (DE3), pGEX-6P-3, GST tag cleaved by PreScission; one molecule per asymmetric unit
T1 sequence (G0S0F9 301-920 limits assumed): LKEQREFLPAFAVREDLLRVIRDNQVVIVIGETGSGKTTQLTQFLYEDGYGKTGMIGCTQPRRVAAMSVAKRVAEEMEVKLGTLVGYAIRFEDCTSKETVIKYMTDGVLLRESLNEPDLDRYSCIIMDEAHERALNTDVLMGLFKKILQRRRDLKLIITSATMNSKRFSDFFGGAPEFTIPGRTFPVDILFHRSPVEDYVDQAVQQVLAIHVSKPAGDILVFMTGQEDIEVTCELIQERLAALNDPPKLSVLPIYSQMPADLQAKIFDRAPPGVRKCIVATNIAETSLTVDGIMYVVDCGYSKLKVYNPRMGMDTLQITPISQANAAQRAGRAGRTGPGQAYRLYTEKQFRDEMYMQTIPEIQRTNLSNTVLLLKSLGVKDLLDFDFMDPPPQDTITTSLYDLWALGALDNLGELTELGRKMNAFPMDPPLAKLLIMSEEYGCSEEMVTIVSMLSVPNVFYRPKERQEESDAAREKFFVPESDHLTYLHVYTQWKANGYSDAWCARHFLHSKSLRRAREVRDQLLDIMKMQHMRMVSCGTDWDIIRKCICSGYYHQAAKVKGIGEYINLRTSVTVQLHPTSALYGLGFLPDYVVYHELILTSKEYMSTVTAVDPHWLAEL
Test: X-ray crystallography, […] A, co-crystallization
Assay type: binding
Conditions: Mg2+ bound; MES pH 6.5; 293 K; tenfold molar excess of ADP; nucleotide site between RecA1 and RecA2

`Nc1ncnc2c1ncn2[C@@H]1O[C@H](COP(=O)(O)OP(=O)(O)O)[C@@H](O)[C@H]1O` [ADP] was tested, and the “X-ray crystallography, 1.9 A, co-crystallization” value was “The polder omit map clearly reveals the presence of ADP and a magnesium ion”.
